IC50 data for 84 compounds are collected here from patent publication US7989464B2, “mGluR1 antagonists as therapeutic agents” (Schering Corporation, priority 2004, dated 2011).

What is called IC50 is the concentration at which inhibition is half-maximal.

T1 sequence (Q13255 19-1194): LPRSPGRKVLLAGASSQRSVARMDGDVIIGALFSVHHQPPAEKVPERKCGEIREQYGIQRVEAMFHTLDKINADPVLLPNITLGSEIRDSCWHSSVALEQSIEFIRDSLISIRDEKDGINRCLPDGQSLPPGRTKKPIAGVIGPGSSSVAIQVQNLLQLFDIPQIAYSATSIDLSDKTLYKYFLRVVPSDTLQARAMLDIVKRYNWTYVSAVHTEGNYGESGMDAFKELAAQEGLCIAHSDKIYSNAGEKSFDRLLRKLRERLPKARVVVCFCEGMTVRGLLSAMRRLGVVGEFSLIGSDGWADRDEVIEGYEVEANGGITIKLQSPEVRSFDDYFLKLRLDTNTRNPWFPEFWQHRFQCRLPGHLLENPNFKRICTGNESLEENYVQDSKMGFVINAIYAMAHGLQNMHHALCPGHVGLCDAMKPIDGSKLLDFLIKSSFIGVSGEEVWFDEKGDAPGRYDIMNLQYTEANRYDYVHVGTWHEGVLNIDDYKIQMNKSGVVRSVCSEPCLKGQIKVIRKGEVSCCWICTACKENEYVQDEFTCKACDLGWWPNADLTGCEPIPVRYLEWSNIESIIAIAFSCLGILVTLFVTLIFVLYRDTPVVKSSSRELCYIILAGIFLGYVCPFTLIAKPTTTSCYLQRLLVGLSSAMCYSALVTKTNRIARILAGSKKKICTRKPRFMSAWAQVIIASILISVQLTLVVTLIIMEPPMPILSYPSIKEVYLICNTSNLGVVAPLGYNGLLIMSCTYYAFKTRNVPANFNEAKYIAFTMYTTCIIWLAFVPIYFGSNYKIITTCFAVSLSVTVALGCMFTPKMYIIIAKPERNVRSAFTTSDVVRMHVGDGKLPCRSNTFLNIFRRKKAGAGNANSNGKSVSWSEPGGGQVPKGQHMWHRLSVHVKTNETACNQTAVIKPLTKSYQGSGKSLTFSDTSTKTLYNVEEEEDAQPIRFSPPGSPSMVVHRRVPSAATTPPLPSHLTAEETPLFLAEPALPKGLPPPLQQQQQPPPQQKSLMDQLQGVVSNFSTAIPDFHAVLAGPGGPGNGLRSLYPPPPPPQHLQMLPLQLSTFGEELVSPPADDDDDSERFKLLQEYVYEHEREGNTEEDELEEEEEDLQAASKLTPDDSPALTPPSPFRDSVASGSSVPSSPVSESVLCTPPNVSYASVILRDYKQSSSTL

One test addresses T1, hmGluR1 receptor (Homo sapiens, UniProt Q13255).
T1 construct: expressed in transfected cells
In words: IC50 determination: intracellular calcium mobilization (FLIPR) upon Quisqualate stimulation in CHO cells stably expressing hmGluR1. The format is cell-based. Conditions: against Quisqualate 1 μM (EC80), FLIPR calcium mobilization, read-out: IC50 Class. The protocol:
A CHO cell line stably expressing hmGluR1 receptor was established. One day prior to assay, cells were split in growth media at concentration of 50,000 cells/well in a volume of 100 μl and seeded into black clear-bottom 96-well plates. After two to six hours, when cells were well attached to the plate, growth medium was replaced with assay medium (100 μL) consisting of DMEM high glucose, supplemented with GPT (1 U/mL) and Sodium pyruvate, 1 mM. Following overnight incubation, medium was discarded and cells were loaded for 2 h with dye from the Calcium 3 Assay Reagent Kit (Molecular Devices, # R8033), prepared according to manufacturers' instructions. […] Test compounds were added 10 minutes before Quisqualate.
A general note: Calcium assays in cells follow changes in intracellular calcium, usually with a dye or a luminescent sensor.
`COc1ccc(-n2cnc3c(sc4nc(Cl)cc(N(C)C)c43)c2=O)cc1` [57C]: the half-inhibitory concentration (IC50) is less than 50 nM.

On to `O=c1c2sc3nccc(NCC4CC4)c3c2ncn1-c1ccc2occc2c1` [28BX], for which the IC50 lay within 150 to 1000 nM.

Take `CNc1ccnc2sc3c(=O)n(-c4ccc(OC)cc4C)cnc3c12` [28BN]: the IC50 was less than 50 nM.

Turning to `O=c1c2sc3nccc(NC4CC4)c3c2ncn1-c1ccc(O)cc1` [28HS], the 50% inhibitory concentration (IC50) is less than 50 nM.

In the case of `Cc1ccc(-n2cnc3c(sc4ncc(Br)c(NCCO)c43)c2=O)cc1` [28FN], the IC50 is less than 50 nM.

Consider `COc1ncnc2sc3c(=O)n(-c4ccc(Cl)cc4)cnc3c12` [95FO], for which the half-inhibitory concentration (IC50) was 150 to 1000 nM.

As to `C=C(Cl)CNc1ccnc2sc3c(=O)n(-c4ccc(C)cc4)cnc3c12` [28EY], the IC50 is less than 50 nM.

Consider `CCc1ccnc2sc3c(=O)n(-c4ccc(Cl)cc4)cnc3c12` [29K], for which the 50% inhibitory concentration (IC50) is less than 50 nM.

In the case of `C#CC(C)Nc1ccnc2sc3c(=O)n(-c4ccc(C)cc4)cnc3c12` (stereo not drawn) [28EZ], the IC50 lay within 150 to 1000 nM.

For the compound `CNc1c(CNC2CCC2)cnc2sc3c(=O)n(-c4ccc(OC)cc4)cnc3c12` [compound 208], the IC50 lay in the range of 150 to 1000 nM.

In the case of `Cc1ccc(-n2cnc3c(sc4cnnc(NC5CC5)c43)c2=O)cc1` [167A], the IC50 lay within 150 to 1000 nM.

On to `Cc1ccc(-n2cnc3c(sc4ncnc(Nc5ccccc5)c43)c2=O)cc1` [95FW], for which the IC50 was greater than 1000 nM.

Take `C#CCNc1ncnc2sc3c(=O)n(-c4ccc5c(c4)OCO5)cnc3c12` [95EO]: the IC50 lay within 50 to 150 nM.

Consider `COCCNc1ccnc2sc3c(=O)n(-c4ccc(OC)cc4)cnc3c12` [28DC], for which the IC50 was less than 50 nM.

Turning to `COc1ccnc2sc3c(=O)n(-c4ccc(Cl)cc4Cl)cnc3c12` [28FV], the 50% inhibitory concentration (IC50) was greater than 1000 nM.

As to `O=c1c2sc3nccc(NCCCCO)c3c2ncn1-c1ccc(Br)cc1` [28GV], the IC50 is less than 50 nM.

As for `COc1ccc(-n2cnc3c(sc4ncc(F)c(N(C)C)c43)c2=O)cc1` [compound 192], the concentration for half-maximal inhibition (IC50) was less than 50 nM.

As to `COc1ccc(-n2cnc3c(sc4ncc(C#N)c(N)c43)c2=O)cc1` [compound 194], the IC50 fell in the range of 150 to 1000 nM.

For the compound `COc1ccc(-n2cnc3c(sc4nccc(N(C)CC(O)CO)c43)c2=O)cc1` (stereo not drawn) [28HV], the IC50 is less than 50 nM.

As to `O=c1c2sc3nccc(NCCO)c3c2ncn1-c1ccc(F)cc1` [28GC], the IC50 was in the range of 50 to 150 nM.

Turning to `COc1ccc(-n2cnc3c(sc4ncc(Br)c(N)c43)c2=O)cc1` [173B], the IC50 was less than 50 nM.

As for `CN(CCO)c1ccnc2sc3c(=O)n(-c4ccc5c(c4)OCCO5)cnc3c12` [28CF], the IC50 was less than 50 nM.

With `C=C(C)CNc1ncnc2sc3c(=O)n(-c4ccc5c(c4)OCCO5)cnc3c12` [95FF], the IC50 is less than 50 nM.

As to `O=c1c2sc3nccc(N4CCC[C@@H]4CO)c3c2ncn1-c1ccc(Cl)cc1` [28GI], the IC50 is greater than 1000 nM.

Take `COc1ccc(-n2cnc3c(sc4nc(Cl)cc(N)c43)c2=O)cc1` [59I]: the IC50 fell in the range of 50 to 150 nM.

In the case of `COc1cc(-n2cnc3c(sc4nccc(N(C)C)c43)c2=O)ccc1F` [28FW], the IC50 is 150 to 1000 nM.

With `Cc1ccc(-n2cnc3c(sc4ncnc(NCCCCO)c43)c2=O)cc1` [95DN], the IC50 was less than 50 nM.

For the compound `CCn1cnc2c(sc3ncnc(Nc4ccc(OC)cc4)c32)c1=O` [95GM], the IC50 is greater than 1000 nM.

On to `COCCNc1ccnc2sc3c(=O)n(-c4ccc(F)cc4)cnc3c12` [28GL], for which the IC50 was less than 50 nM.

For the compound `C=C(C)CNc1ncnc2sc3c(=O)n(-c4ccc(Cl)cc4)cnc3c12` [95EZ], the IC50 was less than 50 nM.

As for `O=c1c2sc3ncnc(NCC4CC4)c3c2ncn1-c1ccc(Cl)cc1` [95DR], the IC50 was in the range of 50 to 150 nM.

With `O=c1c2sc3nccc(N4CCCC4)c3c2ncn1-c1ccc(Br)cc1` [28GT], the IC50 was 150 to 1000 nM.

Regarding `CC(CO)Nc1ccnc2sc3c(=O)n(-c4ccc(Br)cc4)cnc3c12` (stereo not drawn) [28HC], the IC50 is 50 to 150 nM.

For `C#CCNc1ncnc2sc3c(=O)n(-c4ccc5scnc5c4)cnc3c12` [95EL], the IC50 was less than 50 nM.

On to `O=c1c2sc3ncnc(Nc4ccccc4)c3c2ncn1-c1ccc(Br)cc1` [95GF], for which the IC50 was greater than 1000 nM.

With `CC(=O)c1ccnc2sc3c(=O)n(-c4ccc(Cl)cc4)cnc3c12` [compound 184], the 50% inhibitory concentration (IC50) is 50 to 150 nM.

In the case of `Cc1ccc(-n2cnc3c(sc4ncnc(N(C)C5CC5)c43)c2=O)cc1` [95DZ], the IC50 was less than 50 nM.

As to `COc1ccnc2sc3c(=O)n(-c4ccncc4)cnc3c12` [161C], the IC50 is greater than 1000 nM.

Staying with this test, now noted: against Quisqualate 1 μM (EC80), class symbols, read-out: mGIuR 1 IC50.
With `COc1ccc(-n2cnc3c(sc4nccc(Br)c43)c2=O)cc1` [compound 150], the IC50 is 150 to 1000 nM.

In the case of `CC(=O)Nn1c(C)nc2c(sc3nccc(N(C)C)c32)c1=O` [65A], the IC50 was greater than 1000 nM.

Consider `CN(C)c1ccnc2sc3c(=O)n(Nc4ccccc4)cnc3c12` [60B], for which the IC50 was less than 50 nM.

For the compound `COc1ccc(-n2cnc3c(sc4nccc(N(C)C)c43)c2=O)c(C)c1` [7DI], the IC50 is less than 50 nM.

For `CN(C)c1ccnc2sc3c(=O)n(C4CCC(C(C)(C)C)CC4)cnc3c12` (stereo not drawn) [15M], the IC50 was greater than 1000 nM.

`CN(C)c1ccnc2sc3c(=O)n(C4CCCCCCC4)cnc3c12` [15Q]: the IC50 is less than 50 nM.

On to `CN(C)c1ccnc2sc3c(=O)n(-c4ccc(OC(F)(F)F)cc4)cnc3c12` [7Y], for which the IC50 was less than 50 nM.

With `CS(=O)(=O)N1CCN(c2ccnc3sc4c(=O)n(C5CCCCC5)cnc4c23)CC1` [compound 63], the IC50 was in the range of 150 to 1000 nM.

For the compound `CNc1ccnc2sc3c(=O)n(C4CCCCC4)cnc3c12` [28X], the IC50 was less than 50 nM.

For the compound `CN(C)c1cc(Cl)nc2sc3c(=O)n(C4CCCCC4)cnc3c12` [compound 83], the 50% inhibitory concentration (IC50) lay in the range of 50 to 150 nM.

On to `CCC(=O)Nc1ccnc2sc3c(=O)n(C4CCCCC4)cnc3c12` [73A], for which the IC50 was greater than 1000 nM.

As to `Cc1ccc(-n2cnc3c(sc4nccc(O)c43)c2=O)cc1` [26C], the IC50 is greater than 1000 nM.

Take `CN(C)c1ccnc2sc3c(=O)n(-c4ccc(C(N)=O)cc4)cnc3c12` [7AZ]: the half-inhibitory concentration (IC50) was greater than 1000 nM.

Consider `CN(C)c1ccnc2sc3c(=O)n(-c4ccc5ncoc5c4)cnc3c12` [7BS], for which the IC50 was less than 50 nM.

As to `CSc1ccc(-n2cnc3c(sc4nccc(N(C)C)c43)c2=O)cc1` [7CQ], the IC50 was less than 50 nM.

With `CN(C)c1ccnc2sc3c(=O)n(-c4ccccc4)cnc3c12` [7D], the IC50 was less than 50 nM.

For `COc1ccc(-n2c(C)nc3c(sc4nccc(N(C)C)c43)c2=O)cc1` [116D], the IC50 is less than 50 nM.

As to `COc1ccc(-n2cnc3c(sc4nccc(N)c43)c2=O)cc1` [72C], the IC50 is less than 50 nM.

On to `CN(C)c1ccnc2sc3c(=O)n(-c4cccnc4)cnc3c12` [7O], for which the IC50 lay in the range of 50 to 150 nM.

In the case of `COc1cc(OC)cc(-n2cnc3c(sc4nccc(N(C)C)c43)c2=O)c1` [7AX], the IC50 is less than 50 nM.

With `CCNc1ccnc2sc3c(=O)n(-c4ccc(CC)cc4)cnc3c12` [131F], the IC50 fell in the range of 50 to 150 nM.

With `CN(C)c1ccnc2sc3c(=O)n(-c4ccc(C#N)cc4)cnc3c12` [7K], the IC50 was less than 50 nM.

With `O=c1c2sc3nccc(N4CCCCC4)c3c2ncn1C1CCCCC1` [28L], the IC50 was greater than 1000 nM.

For `COc1ccc(-n2cnc3c(sc4ncc(Br)c(N(C)C)c43)c2=O)cc1` [compound 151], the IC50 is less than 50 nM.

In the case of `CCOc1ccc(-n2cnc3c(sc4nccc(N(C)C)c43)c2=O)cc1` [7AE], the IC50 was in the range of 150 to 1000 nM.

Take `CN(C)c1ccnc2sc3c(=O)n(-c4cccs4)cnc3c12` [15AB]: the IC50 is less than 50 nM.

Take `CN(C)c1ccnc2sc3c(=O)n(N4CCCCCC4)cnc3c12` [60D]: the IC50 was less than 50 nM.

With `Cc1cc(F)cc(-n2cnc3c(sc4nccc(N(C)C)c43)c2=O)c1` [7DX], the IC50 was less than 50 nM.

With `Cc1ccc(-n2c(C)nc3c(sc4nccc(NCCO)c43)c2=O)cc1` [113N], the concentration for half-maximal inhibition (IC50) was 50 to 150 nM.

Turning to `Cc1ccc(-n2cnc3c(sc4nc(C(C)C)cc(N(C)C)c43)c2=O)cc1` [87A], the IC50 lay within 150 to 1000 nM.

In the case of `CN(C)c1ccnc2sc3c(=O)n(-c4ccccn4)cnc3c12` [7U], the IC50 is 50 to 150 nM.

For `Cc1ccc(-n2cnc3c(sc4nc(C)cc(N(C)C)c43)c2=O)cc1` [7CK], the IC50 was less than 50 nM.

As for `CN(C)c1ccnc2sc3c(=O)n(-c4ccc5nsnc5c4)cnc3c12` [7BN], the IC50 is less than 50 nM.

Take `CC#CCOc1ccnc2sc3c(=O)n(-c4ccc(C)cc4)cnc3c12` [66B]: the IC50 was greater than 1000 nM.

Turning to `COc1ccc(-n2cnc3c(sc4nccc(Nc5ccccc5)c43)c2=O)cc1` [28G], the IC50 fell in the range of 150 to 1000 nM.

In the case of `Cc1nc2c(sc3nccc(N(C)C)c32)c(=O)n1-c1ccccc1` [113B], the IC50 is less than 50 nM.

With `Cc1ccc(-n2cnc3c([nH]c4nccc(N(C)C)c43)c2=O)cc1` [135A], the IC50 was greater than 1000 nM.

Take `Cc1ccc(-n2cnc3c(sc4nccc(N(C)C)c43)c2=O)nc1` [7DE]: the IC50 was less than 50 nM.

Consider `CN(C)c1cncc2sc3c(=O)n(-c4ccc5c(c4)OCCO5)cnc3c12` [37C], for which the IC50 is 50 to 150 nM.

Regarding `CN(C)c1ccnc2sc3c(=O)n(-c4nc5ccccc5s4)cnc3c12` [7BQ], the IC50 fell in the range of 150 to 1000 nM.

Consider `CN(C)c1ccnc2sc3c(=O)n(-c4cccc(Br)c4)cnc3c12` [7DL], for which the IC50 was less than 50 nM.

For the compound `CCc1ccc(-n2cnc3c(sc4nc(C)cc(N(C)C)c43)c2=O)cc1` [7CP], the IC50 lay within 50 to 150 nM.

As to `COc1cccc(-n2cnc3c(sc4nc(N5CCOCC5)c5c(c43)CC(C)(C)OC5)c2=O)c1` [P-4], the IC50 is 150 to 1000 nM.

For `O=c1c2sc3nccc(Cl)c3c2ncn1-c1ccccc1` [compound 13], the IC50 is 150 to 1000 nM.

As to `Cc1ccc(-n2cnc3c(sc4nccc(C(=O)O)c43)c2=O)cc1` [compound 77], the IC50 is greater than 1000 nM.

With `CNc1ccnc2sc3c(=O)n(-c4ccc5ncsc5c4)cnc3c12` [7BZ], the IC50 is less than 50 nM.
